Assay results published in patent US10131644B2, “Aryl sultam derivatives as RORc modulators” (Genentech, Inc., priority 2014, dated 2018).
Counter-ions that a name gives are not always drawn.

Target: T1, RORc (Homo sapiens, UniProt P51449)
T1 sequence (P51449 269-508 limits assumed): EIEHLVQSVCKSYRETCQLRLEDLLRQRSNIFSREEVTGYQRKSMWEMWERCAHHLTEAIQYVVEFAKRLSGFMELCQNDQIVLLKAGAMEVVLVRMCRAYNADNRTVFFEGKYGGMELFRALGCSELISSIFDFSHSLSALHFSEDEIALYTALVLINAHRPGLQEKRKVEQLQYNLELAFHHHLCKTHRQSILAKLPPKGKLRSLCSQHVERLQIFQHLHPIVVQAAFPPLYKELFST
Assay: In vitro RORc ligand binding assay (25-[3H]hydroxycholesterol displacement)
Settings: IC50, IC50 values for RORc; unit inferred

Row | IC50 [nM] | SMILES
1 | 1080 | C[C@H]1CC[C@H](c2ccccc2)S(=O)(=O)N1Cc1ccc(C2(C(N)=O)CC2)cc1F [Compound 196, 1-[3-fluoro-4-[[(3S,6R)-3-methyl-1,1-dioxo-6-phenyl-thiazinan-2-yl]methyl]phenyl]cyclopropanecarboxamide]
2 | 360 | COC(=O)[C@]1(c2ccc(CN3[C@@H](C)CC[C@H](c4ccccc4)S3(=O)=O)cc2)CC[C@H](n2cnnc2)CC1 [Example 17, 1-[4-((3S,6R)-3-Methyl-1,1-dioxo-6-phenyl-[1,2]thiazinan-2-ylmethyl)-phenyl]-4-[1,2,4]triazol-4-yl-cyclohexanecarboxylic acid methyl ester]
3 | 2400 | C[C@H]1CC[C@H](c2ccccc2)S(=O)(=O)N1Cc1ccc([C@]2(C(=O)N(C)C)CC[C@H](n3cnnc3)CC2)cc1 [Example 16, 1-[4-((3S,6R)-3-Methyl-1,1-dioxo-6-phenyl-[1,2]thiazinan-2-ylmethyl)-phenyl]-4-[1,2,4]triazol-4-yl-cyclohexanecarboxylic acid dimethylamide]
4 | 630 | COC(=O)[C@]1(c2ccc(CN3[C@@H](C)CC[C@H](c4ccccc4)S3(=O)=O)cc2)CC[C@@H](n2cnnc2)CC1 [Example 12, 1-[4-((3S,6R)-3-Methyl-1,1-dioxo-6-phenyl-[1,2]thiazinan-2-ylmethyl)-phenyl]-4-[1,2,4]triazol-4-yl-cyclohexanecarboxylic acid methyl ester]
5 | 35 | C[C@H]1CC[C@H](c2ccccc2)S(=O)(=O)N1Cc1cc(F)c(C2(NCC(N)=O)COC2)cc1F [Compound 195, 2-[[3-[2,5-difluoro-4-[[(3S,6R)-3-methyl-1,1-dioxo-6-phenyl-thiazinan-yl]methyl]phenyl]oxetan-3-yl]amino]acetamide]
6 | 130 | CC(=O)N1CCC(O)(c2ccc(CN3[C@@H](C)CC[C@H](c4ccccc4)S3(=O)=O)c(F)c2)CC1 [Example 9, 1-{4-[3-Fluoro-4-((3S,6R)-3-methyl-1,1-dioxo-6-phenyl-[1,2]thiazinan-2-ylmethyl)-phenyl]-4-hydroxy-piperidin-1-yl}-ethanone]
7 | 159 | C[C@H]1CC[C@H](c2ccccc2)S(=O)(=O)N1Cc1ccc([C@]2(C#N)C[C@@H](O)C2)cc1F [Compound 179, 1-[3-fluoro-4-[[(3S,6R)-3-methyl-1,1 dioxo-6-phenyl-thiazinan-2-yl]methyl]phenyl]-3-hydroxy-cyclobutanecarbonitrile]
8 | 71 | COC(CNC1(c2cc(F)c(CN3[C@@H](C)CC[C@H](c4ccccc4)S3(=O)=O)cc2F)CCOCC1)OC [Compound 189, 4-[2,5-difluoro-4-[[(3S,6R)-3-methyl-1,1-dioxo-6-phenyl-thiazinan-2-yl]methyl]phenyl]-N-(2,2-dimethoxyethyl)tetrahydropyran-4-amine]
9 | 6.7 | C[C@@H](NC1(c2ccc(CN3[C@@H](C)CC[C@H](c4ccccc4)S3(=O)=O)c(F)c2)CCOCC1)C(N)=O [Compound 180, (2R)-2-[[4-[3-fluoro-4-[[(3S,6R)-3-methyl-1,1-dioxo-6-phenyl-thiazinan-2-yl]methyl]phenyl]tetrahydropyran-4-yl]amino]propanamide]

The remaining lines, values behind:

Row | SMILES | IC50 [nM]
10 | COC(=O)C1(c2cc(F)c(CN3[C@@H](C)CC[C@H](c4ccccc4)S3(=O)=O)cc2F)CCC(=O)CC1 [Compound 120, methyl 1-[2,5-difluoro-4-[[(3S,6R)-3-methyl-1,1-dioxo-6-phenyl-thiazinan-2-yl]methyl]phenyl]-4-oxo-cyclohexanecarboxylate] | 6.1
11 | COC(=O)C1(c2ccc(CN3[C@@H](C)CC[C@H](c4ccccc4)S3(=O)=O)c(F)c2)CCOCC1 [Compound 39, 4-[3-Fluoro-4-((3S,6R)-3-methyl-1,1-dioxo-6-phenyl-[1,2]thiazinan-2-ylmethyl)-phenyl]-tetrahydro-pyran-4-carboxylic acid methyl ester] | 190
12 | C[C@H]1CC[C@H](c2ccccc2)S(=O)(=O)N1Cc1ccc(C2(CCO)COC2)cc1F [Compound 158] | 60.3
13 | C[C@H]1CC[C@H](c2ccccc2)S(=O)(=O)N1Cc1ccc(C2(C(N)=O)CCOCC2)cc1 [Compound 31, 4-[4-((3S,6R)-3-Methyl-1,1-dioxo-6-phenyl-[1,2]thiazinan-2-ylmethyl)-phenyl]-tetrahydro-pyran-4-carboxylic acid amide] | 420
14 | C[C@H]1CC[C@H](c2ccccc2)S(=O)(=O)N1Cc1cc(F)c(C2(C(N)=O)CCOCC2)cc1F [Compound 102, 4-[2,5-difluoro-4-[[(3S,6R)-3-methyl-1,1-dioxo-6-phenyl-thiazinan-2-yl]methyl]phenyl]tetrahydropyran-4-carboxamide] | 37.8
15 | C[C@H]1CC[C@H](c2ccccc2)S(=O)(=O)N1Cc1ccc(C2(O)CCOCC2)cc1F [Compound 69, 4-[3-fluoro-4-[[(3S,6R)-3-methyl-1,1-dioxo-6-phenyl-thiazinan-2-yl]methyl]phenyl]tetrahydropyran-4-ol] | 93
16 | C[C@H]1CC[C@H](c2ccccc2)S(=O)(=O)N1Cc1cc(F)c(C2(COCC(N)=O)CC2)cc1F [Compound 127, 2-[[1-[2,5-difluoro-4-[[(3S,6R)-3-methyl-1,1-dioxo-6-phenyl-thiazinan-2-yl]methyl]phenyl]cyclopropyl]methoxy]acetamide] | 20
17 | CC(=O)NCC1(c2ccc(CN3[C@@H](C)CC[C@H](c4ccccc4)S3(=O)=O)c(F)c2)CCOCC1 [Compound 70, N-[[4-[3-fluoro-4-[[(3S,6R)-3-methyl-1,1-dioxo-6-phenyl-thiazinan-2-yl]methyl]phenyl]tetrahydropyran-4-yl]methyl]acetamide] | 148
18 | C[C@H]1CC[C@H](c2ccccc2)S(=O)(=O)N1Cc1ccc(C2(C(=O)NCC#N)CCOCC2)cc1F [Compound 57, N-(cyanomethyl)-4-[3-fluoro-4-[[(3S,6R)-3-methyl-1,1-dioxo-6-phenyl-thiazinan-2-yl]methyl]phenyl]tetrahydropyran-4-carboxamide] | 80.2
19 | C[C@H]1CC[C@H](c2ccccc2)S(=O)(=O)N1Cc1ccc(C2(CCCO)CCOCC2)cc1F [Compound 81, 3-[4-[3-fluoro-4-[[(3S,6R)-3-methyl-1,1-dioxo-6-phenyl-thiazinan-2-yl]methyl]phenyl]tetrahydropyran-4-yl]propan-1-ol] | 6.2
20 | CCOC(=O)CNC1(c2ccc(CN3[C@@H](C)CC[C@H](c4ccccc4)S3(=O)=O)c(F)c2)CCOCC1 [Compound 161, ethyl 2-[[4-[3-fluoro-4-[[(3S,6R)-3-methyl-1,1-dioxo-6-phenyl-thiazinan-2-yl]methyl]phenyl]tetrahydropyran-4-yl]amino]acetate] | 29.5
21 | COC(=O)C1(c2ccc(CN3[C@@H](C)CC[C@H](c4ccccc4)S3(=O)=O)cc2)CCOCC1 [Compound 27, 4-[4-((3S,6R)-3-Methyl-1,1-dioxo-6-phenyl-[1,2]thiazinan-2-ylmethyl)-phenyl]-tetrahydro-pyran-4-carboxylic acid methyl ester] | 500
22 | C[C@H]1CC[C@H](c2ccccc2)S(=O)(=O)N1Cc1ccc(C2(CCC#N)COC2)cc1F [Compound 159] | 77.1
23 | C[C@H]1CC[C@H](c2ccccc2)S(=O)(=O)N1Cc1ccc(C2(C(=O)NCCCN)CCOCC2)cc1F [Compound 55, N-(3-aminopropyl)-4-[3-fluoro-4-[[(3S,6R)-3-methyl-1,1-dioxo-6-phenyl-thiazinan-2-yl]methyl]phenyl]tetrahydropyran-4-carboxamide] | 913
24 | CNC(=O)C1(c2ccc(CN3[C@@H](C)CCC(c4ccccc4)S3(=O)=O)cc2)CCOCC1 (stereo partly drawn) [Compound 40, 4-[4-((S)-3-Methyl-1,1-dioxo-6-phenyl-[1,2]thiazinan-2-ylmethyl)-phenyl]-tetrahydro-pyran-4-carboxylic acid methylamide] | 570
25 | C[C@H]1CC[C@H](c2ccccc2)S(=O)(=O)N1Cc1ccc(C2(C(=O)NCC(C)(C)O)CCOCC2)cc1F [Compound 62, 4-[3-fluoro-4-[[(3S,6R)-3-methyl-1,1-dioxo-6-phenyl-thiazinan-2-yl]methyl]phenyl]-N-(2-hydroxy-2-methyl-propyl)tetrahydropyran-4-carboxamide] | 149
26 | C[C@H]1CC[C@H](c2ccccc2)S(=O)(=O)N1Cc1ccc(C2(CCC(=O)O)CCOCC2)cc1F [Compound 84, 3-[4-[3-fluoro-4-[[(3S,6R)-3-methyl-1,1-dioxo-6-phenyl-thiazinan-2-yl]methyl]phenyl]tetrahydropyran-4-yl]propanoic acid] | 49.2
27 | CC(=O)N1CCC(OCC(O)CO)(c2cc(F)c(CN3[C@@H](C)CC[C@H](c4ccccc4)S3(=O)=O)cc2F)CC1 (stereo in doubt) [Compound 169, 1-[4-[2,5-difluoro-4-[[(3S,6R)-3-methyl-1,1-dioxo-6-phenyl-thiazinan-2-yl]methyl]phenyl]-4-[(2R)-2,3-dihydroxypropoxy]-1-piperidyl]ethanone] | 20.8
28 | C[C@H]1CC[C@H](c2ccccc2)S(=O)(=O)N1Cc1ccc(C2(O)CCS(=O)(=O)CC2)cc1F [Compound 42, (3S,6R)-2-(2-fluoro-4-(4-hydroxy-1,1-dioxidotetrahydro-2H-thiopyran-4-yl)benzyl)-3-methyl-6-phenyl-1,2-thiazinane 1,1-dioxide] | 190
29 | C[C@H]1CC[C@H](c2ccccc2)S(=O)(=O)N1Cc1ccc(C2(N)CC2)cc1F [Compound 153, 1-[3-fluoro-4-[[(3S,6R)-3-methyl-1,1-dioxo-6-phenyl-thiazinan-2-yl]methyl]phenyl]cyclopropanamine; hydrochloride] | 572
30 | C[C@H]1CC[C@H](c2ccccc2)S(=O)(=O)N1Cc1ccc(C2([C@H](O)CCO)CCOCC2)cc1F [Compound 118, (1R)-1-[4-[3-fluoro-4-[[(3S,6R)-3-methyl-1,1-dioxo-6-phenyl-thiazinan-2-yl]methyl]phenyl]tetrahydropyran-4-yl]propane-1,3-diol] | 16.6
